# Data published in patent US6951655B2, “Pro-micelle pharmaceutical compositions” (IMI Biomed, Inc., priority 2001, dated 2005).
# Experiments:
# rabbits [1] = assay: Blood glucose in rabbits after i.v. injection before glucose challenge; type: in vivo, rabbit
# Experimental: FIG. 11 depicts blood glucose levels when a standard regular insulin (0.2 ml of 3.1 IU/ml) or an extraction of the pro-micelle (1.5 ml. of 0.4 IU/ml) was intravenously (i.v.) injected into rabbits one minute before a glucose challenge of 250 mg/kg. […] With the formulation of the invention, a hypoglycemic effect was noticed within 35 minutes, and lasted for the duration of the experiment of 120 minutes or more.
# rabbits [2] = assay: Blood glucose in rabbits after i.p. administration before glucose challenge; type: in vivo, rabbit; conditions: i.p. 15 minutes before glucose challenge of 250 mg/kg, FIG. 10
# Experimental: FIG. 10 depicts blood glucose when a standard regular insulin solution (0.3 ml of 3.1 IU/ml) or an extraction of the pro-micelle (2.5 ml of 0.4 IU/ml) was administered intraperitonally (i.p.) to rabbits 15 minutes before a glucose challenge of 250 mg/kg.
substance,measurement,setting,value
"standard regular insulin: Standard regular insulin solution, 3.1 IU/ml, comparator",duration of hypoglycemic effect,rabbits [1]; i.v.,short in duration
same,blood glucose course after i.v. injection,"rabbits [1]; i.v. one minute before glucose challenge of 250 mg/kg, FIG. 11",rapidly decreased from 20 to 45 minutes
same,blood glucose relative to control level within 90 minutes of injection,"rabbits [1]; i.v., within 90 minutes of the insulin injection",10-30 % of the control level
same,effect on blood sugar after i.p. injection,rabbits [2],decreased blood sugar
